Data set [1] deals with community-dwelling subjects with mild or moderate dementia. As to conditions: cited from earlier work.
In data set [2] the test system is subjects with early-stage dementia. Conditions: 44 subjects with early-stage dementia; cited from earlier work.
In data set [3] the test system is popliteal lymph node and spleen T-cells. Briefly: Cytokine profiles (capture ELISA) after feeding or nasal administration and immunization of non-transgenic littermates. It counts as in vivo, SWISSXXB6D2F1 mice. As to conditions: then immunized, ten days later.
Protocol: Levels of IL-4, IL-2, IL-10, TGF-β and IFNγ in supernatants were determined by capture ELISA as described. […] Briefly, supernatants were added to microtiter (Maxisorp) plates, previously coated with rat anti-mouse IL-4, IL-2, IL-10, TGF-β or IFN-γ monoclonal antibodies (capture antibodies, Pharmingen; 1 µg/ml at 4°C over night) and blocked with BSA-diluent/blocking solution (KPL). Plates were washed, and standards and samples were added for another overnight incubation at 4°C. Bound cytokine was detected by the addition of ABTS (Kirkegaard & Perry). Wells were washed, and cytokine levels determined using biotinylated rat anti-mouse IL-4, IL-2, IL-10, TGF-β or IFN-γ monoclonal antibodies (detecting antibodies, Pharmingen) and a peroxide visualization system (peroxidase-labeled streptavidin). IL-2 and IL-4 were analyzed after 24 hours of cell incubation with antigen, IL-10 and IFN-γ after 40 hours and TGF-β after 72 hours. Cytokine levels were calculated from a log-log plot of absorbance vs. concentration of recombinant cytokines (Pharmingen), and results are expressed in pg/mL (for IL-4, IL-2, IL-10, TGF-β and IFN-γ). Threshold sensitivities of ELISA assays were 5 pg/mL, 10 pg/mL and 2.5 ng/mL for IL-4, IL-2 and IFN-γ, respectively.
Feeding and Immunization: SWISSXXB6D2F1 mice were fed with [1-40]Aβ 75 µg/feeding x 5 or nasally administered with 25 µg/application x 3, and 2 days after the last treatment, were immunized with 100 µg [1-40]Aβ in 50 µg CFA. Ten days later, the popliteal lymph node and spleen T-cells were checked for cytokine production as described above.
Data set [4] has as its system PLN. Conditions: mucosally administered, immunized 10 days prior to sacrifice. Here is the method: Levels of IL-4, IL-2, IL-10, TGF-β and IFNγ in supernatants were determined by capture ELISA as described. Friedman, A., et al., Proc. Nat'l Acad. Sci. U.S.A., 91, 6688 (1994); Yang, X., et al., J. Immunol., 150, 4354 (1993). Briefly, supernatants were added to microtiter (Maxisorp) plates, previously coated with rat anti-mouse IL-4, IL-2, IL-10, TGF-β or IFN-γ monoclonal antibodies (capture antibodies, Pharmingen; 1 µg/ml at 4°C over night) and blocked with BSA-diluent/blocking solution (KPL). Plates were washed, and standards and samples were added for another overnight incubation at 4°C. Bound cytokine was detected by the addition of ABTS (Kirkegaard & Perry). Wells were washed, and cytokine levels determined using biotinylated rat anti-mouse IL-4, IL-2, IL-10, TGF-β or IFN-γ monoclonal antibodies (detecting antibodies, Pharmingen) and a peroxide visualization system (peroxidase-labeled streptavidin). IL-2 and IL-4 were analyzed after 24 hours of cell incubation with antigen, IL-10 and IFN-γ after 40 hours and TGF-β after 72 hours. Cytokine levels were calculated from a log-log plot of absorbance vs. concentration of recombinant cytokines (Pharmingen), and results are expressed in pg/mL (for IL-4, IL-2, IL-10, TGF-β and IFN-γ). Threshold sensitivities of ELISA assays were 5 pg/mL, 10 pg/mL and 2.5 ng/mL for IL-4, IL-2 and IFN-γ, respectively.
Two mice from each of groups 1, 5, and 8 were immunized with β-amyloid peptide 10 days prior to sacrifice.

Data set [5] deals with popliteal lymph node T-cells and spleen cells. Briefly: Proliferation assay in mouse strains immunized but not fed the peptide. Type of data set: in vivo, SJL/J, DBA/1, C57BL/6, BALB/C and C3H/EB mice. As to conditions: one in vitro stimulation, Figures 2A, 2B. Here is the method: (§1) Mice were immunized with 100 µg of [1-40]β-amyloid peptide ([1-40]Aβ) emulsified in 50 µg CFA (Difco Laboratories, Inc.). On day 10, popliteal lymph nodes and spleens were removed and for T-cell proliferation and cytokine production.
Figure 2A compares proliferation of popliteal lymph node T-cells from SJL/J, DBA/I, C57BL/6, BALB/C and C3H/EB mice immunized with [1-40]β-amyloid peptide. Figure 2B compares proliferation in spleen cells from SJL/J, DBA/1, C57BL/6, BALB/C and C3H/EB mice immunized with [1-40]β-amyloid peptide. […] It should be noted that T-cells for the experiment shown in this Example are stimulated with antigen only once in vitro prior to the proliferation assay. Additional stimulations would enlist response from the apparent non-responder strain C57BL/6 and (DBA/1). This experiment provides information about the responding ability of cells from various strains and was useful in designing the subsequent experiments described below. It is believed to be advantageous to select "good responders" (such as C3H/EB) but not "too high responders" (SJL/J was thus not chosen).

The subject of another data set is β-amyloid. Briefly: Immunoassay of mouse antisera for IgG subtypes against β-amyloid (Down syndrome brain sections as capture antigen). Conditions: nasally treated with 25 µg; over controls; Figure 11. Type of data set: in vivo, PDAPP mice. The procedure:
In these experiments, the antisera were tested in an immunoassay for the presence of IgG subtypes against β-amyloid. In the immunoassay, Down syndrome brain sections, which contain large amounts of β-amyloid, were employed as "capture" antigen. IgG in the mice antisera were bound to the sections, and the presence of IgG subtypes in the bound antibodies distinguished by secondary (2°) antibodies specific for each subtype. […] These antibodies are associated with Th2 type cellular immune responses.

The subject of data set [6] is popliteal lymph node T-cells. Briefly: Proliferation assay ([3H]thymidine incorporation) of popliteal lymph node cells after feeding or nasal treatment and immunization. Type of data set: in vivo, SWISSXBDF1 mice. Conditions: fed or nasally treated; ten days after foot pad immunization with 100 µg peptide in 50 µg CFA; Figure 1B. Here is the method:
(§2) Female BALB/C (6-8 weeks of age); DBA/2; C3H/eb; C47b1/6; SWISSXBDF1 or SHL/J mice were used. The animals were maintained in a temperature- and light-controlled environment with free access to feed and water. Each experimental group contained no fewer than 5 mice.
as §1

The test system of data set [7] is PLN. As to conditions: mice of certain strains (e.g., C3H/EB and DBA/1) mucosally tolerized.
Data set [8] concerns popliteal lymph node and spleen T-cells. Briefly: Cytokine production assay (capture ELISA) after feeding or nasal administration and immunization. Conditions: then immunized. Type of data set: in vivo, C3H/EB mice. Here is the method: C3H/eb mice were fed [1-40]Aβ 500 µg/feeding, 50 µg/feeding, or 5 µg/feeding every day for 5 days (200 µl/feeding). Nasal administration was given at 50 µg/application or 5 µg/application every day for 3 days (10 µl/application).
This experiment also served as a preliminary dose response experiment for this mouse strain.
Figure 5A illustrates the result in secretion of the Th1 immunostimulatory (proinflammatory) cytokine IL-2 in popliteal lymph nodes from C3H/EB mice at various feeding levels (5, 50 and 500 µg/feeding for 5 days) and when nasally administered (5 or 50 µg/application for 3 days) [1-40]β-amyloid peptide prior to immunization (2 days after the last feeding or nasal application) with 100 µg [1-40]β-amyloid peptide in 50 µg CFA. […] Based on the results for Fig. 5A, and Figs. 5B, 6A, 6B, and 7A, 7B, it was decided to use 25 µg nasally and 75 µg orally in subsequent experiments.

Data set [9] deals with PDAPP mice. Briefly: β-amyloid plaque load in brain sections (visual and computer assisted image analysis). It counts as in vivo. The text has this: Transgenic PDAPP mice were acquired from Athena Neurosciences, Inc. (South San Francisco, CA). These mice express a human gene encoding a mutant form of β-amyloid precursor protein and progressively develop β-amyloid deposits in the hippocampus and cerebral cortex in a manner similar to that seen in Alzheimer's disease. The β-amyloid deposits in the transgenic mice become associated with activated microglial cells, reactive astrocytes and other features of the periplaque inflammatory response seen in Alzheimer's disease brains.
4 to 5 month old PDAPP mice were fed or nasally administered either [1-40]β-amyloid peptide or a control protein (myelin basic protein or ovalbumin in amounts of 50 or 500 µg per feeding). Administration was carried out three (nasal) or five times consecutively (oral) during an initial one week period, and then on a weekly basis until the animals were between 11 and 12 months old. The orally administered β-amyloid peptide was in a dosage of 10 or 100 µg, and the nasally administered β-amyloid was in a dosage of 5 or 25 µg. […]
Specificially, results are shown for both visual and computer assisted image analysis of β-amyloid plaque load for the 8 experimental groups of mice that were tested; values are shown for each mouse in the relevant group. […] The visual assessment of plaque load was scored according to the table shown at the bottom of Figure 9A.

In data set [10] the test system is PDAPP mice. Briefly: Immunoreactivity tests on brain sections (immunological markers and cytokines). Type of data set: in vivo. Conditions: mice treated mucosally; Figures 9A, 9B. Here is the method:
4 to 5 month old PDAPP mice were fed or nasally administered either [1-40]β-amyloid peptide or a control protein (myelin basic protein or ovalbumin in amounts of 50 or 500 µg per feeding). Administration was carried out three (nasal) or five times consecutively (oral) during an initial one week period, and then on a weekly basis until the animals were between 11 and 12 months old. The orally administered β-amyloid peptide was in a dosage of 10 or 100 µg, and the nasally administered β-amyloid was in a dosage of 5 or 25 µg.
The feeding and nasal administration of β-amyloid peptide, or ovalbumin to PDAPP mice was conducted among the following mice groups: Group 0: Non treated; mice nos. 0.1-0.7 Group 1: fed [1-40]β-amyloid peptide 100µg/feeding; mice nos. 1.1-1.9 Group 2: fed [1-40]β-amyloid peptide 10µg/feeding; mice nos. 2.1-2.9 Group 3: nasal [1-40]β-amyloid peptide 25µg/treatment; mice nos. 3.1-3.9 Group 4: nasal [1-40]β-amyloid peptide 5µg/treatment; mice nos. 4.1-4.7 Group 5: fed ovalbumin 500µg/feeding; mice nos. 5.1-5.6 Group 6: nasal ovalbumin 50µg/treatment; mice nos. 6.1-6.6 Group 7: fed MBP 500µg/feeding; mice nos. 7.1-7.5 Group 8: nasal MBP 50µg/treatment; mice nos. 8.1-8.6
At the end of the treatment period, the mice were sacrificed and brains, popliteal lymph nodes and spleens removed. […]

In another data set the test system is spleen T-cells. Briefly: Proliferation assay ([3H]thymidine incorporation) of spleen cells after feeding or nasal treatment and immunization. Conditions: fed (75 µg/feeding x 5) or nasally treated (25 µg x 3); immunized two days after last treatment with 100 µg peptide in 50 µg CFA; Figure 1A. It counts as in vivo, SWISSXBDF1 mice. Here is the method: as §2, §1

The mark [11] stands for this setting: at least pursuant to nasal administration of 25 µg.
Setting [12] is: fed 75 µg/feeding x 5 or nasal 25 µg/application x 3.

The text below walks through data of patent publication EP1033998B1, “SUPPRESSING BETA-AMYLOID-RELATED CHANGES IN ALZHEIMER'S DISEASE” (Neuralab, Ltd., priority 1997, dated 2005).

Take `Cl.Nc1c2c(nc3ccccc13)CCCC2.O` [TACRINE, 1,2,3,4-tetrahydro-9-acridinamine monohydrochloride monohydrate]: the “efficacy for treating Alzheimer's disease” value in data set [1] (community-dwelling subjects with mild or moderate dementia) is “only partially effective”. Further, the serum aminotransferase levels entry in [1] (safety concern, may indicate hepatocellular injury) is listed as “elevation”.

For the compound `COc1ccc2c(c1)c(CC(=O)O)c(C)n2C(=O)c1ccc(Cl)cc1` [indomethacin], the “mental function during the study” value in data set [2] is listed as “did not deteriorate”.

Turning to “[1-40]β-amyloid peptide: β-amyloid peptide fragment [1-40], sequence derived from β-amyloid precursor protein; antigen given orally or nasally”, in data set [3] (setting [11]), the “in vitro IFN-γ response to Aβ stimulation” value is listed as “reduced in vitro response” and the “in vitro IL-2 response to Aβ stimulation” value was “reduced in vitro response”. In data set [3] (setting [12]), the “in vitro IL-10 response to Aβ stimulation” value is on record as “increased response” and the “in vitro TGF-β response to Aβ stimulation” value is “increased response”. Besides, the “production of IL-2” value in the data set with PLN [4] (Figure 12) is given as “decreased production”. For the same compound, the “production of IFN-γ” value in the data set on PLN [4] (Figure 14) was “decreased production”. Besides, the “production of IL-6” value with PLN [4] (Figure 15) is reported as “decreased production”. Moreover, the “production of IL-10” value in the data set with PLN [4] (Figure 16) was “increased production”. For the same compound, the “production of TGF-β” value with PLN [4] (Figure 17) is “increased production”. For the same compound, the “proliferative response to the peptide after immunization” value in data set [5] is reported as “many strains of normal mice (not transgenic mice, not Alzheimer's model) respond”. The “IgG1 class antibodies against β-amyloid in antisera” value in the data set on β-amyloid is “increase”. In [6], the “proliferation in popliteal lymph nodes” value was “suppression of proliferation”. Besides, in the data set with PLN [7], the PLN proliferation result is given as “decreased PLN proliferation”. Moreover, the “secretion of IL-2 in spleen cells” value in [8] (at 5 µg fed and 50 µg nasal, Fig. 5B) is “Suppression of IL-2 secretion was clear”. The “secretion of IL-10” value in data set [8] (fed 5, 50 or 500 µg/feeding for 5 days or nasal 5 or 50 µg/application for 3 days, Figures 4A, 4B) was “significant enhancement of IL-10 in at least one of spleen and PLN cells treated with at least one dose”. Also, the “secretion of TGF-β in spleen cells” value in data set [8] (fed 5 and 50 µg/feeding for 5 days or nasal 50 µg/application for 3 days, Figure 6B) is reported as “enhanced secretion”. The “secretion of IL-2 in popliteal lymph nodes” value in data set [8] (nasal administration (5 or 50 µg/application for 3 days), Fig. 5A) is “Suppression of IL-2 secretion was clear”. The “difference in β-amyloid deposits versus controls (1-tailed Mann-Whitney U-test)” value in the data set with PDAPP mice [9] (nasally administered 25 µg) is listed as “statistically significant”. In addition, in the data set on PDAPP mice [9] (oral 10 or 100 µg or nasal 5 or 25 µg, weekly from 4-5 to 11-12 months of age, versus control groups), the “development of β-amyloid deposits” value is listed as “fewer β-amyloid deposits”. Moreover, in the data set with PDAPP mice [10], the “microglial activation in the brain” value was “decreased microglial activation” and the “production of inflammatory cytokines in the brain” value is given as “decreased production”. Further, the “proliferation of spleen cells” value in the data set on spleen T-cells is reported as “significant suppression of proliferation”.
